Data from patent US9345691B2, “Beta-lactam compounds for enhancing T cell-mediated immune responses” (STEM CELL MEDICINE LTD., priority 2011, dated 2016).
Entries after “also recorded” stand apart in the source; their conditions may differ.

Legend:
CD4+ human T cells = assay: Human Autoimmune and Inflammatory Response Gene Array, anti-CD3 stimulated T cells; assay type: cell-based; conditions: 120 min anti-CD3; for % decrease by Cef.: cefuroxime 50 μg/ml, ±SD, relative to control
Description: T cells were purified from the peripheral bloods of healthy human donors (Blood Bank, Sheba Medical center). The whole blood was incubated (20 min, 22° C.) with RosetteSep™ human T cell enrichment mixture (StemCell Technologies, Vancouver, Canada). The remaining unsedimented cells were then loaded onto lymphocyte separation medium (ICN Biomedicals, Irvine, Calif.), isolated by density centrifugation, and washed with PBS. […] In a second round of purification, CD3^+ T cells were labeled for selection with a magnetically coupled mAb against CD4 (Miltenyi Biotec, Auburn, Calif.).
Human CD4 T cells were isolated as described, and incubated in 24 well plates (Nunc), 4×10^6 cells/ml with plate bound anti-human CD3 (OKT3) at 2 μg/ml. The stimulation was performed in RPMI medium supplemented with 0.1% BSA. […] RNA was extracted from samples and used to prepare probes for gene array in accord with the manufacturer's instructions (SuperArray Bioscience, Frederick, Md.). Adequate labeling of the probes was tested before hybridization. Three healthy donors were tested in stimulation with cefuroxime. The membranes were analyzed online with the Image Data Acquisition and Expression Analysis (SuperArray Bioscience).
The Human Autoimmune and Inflammatory Response Gene Array (SuperArray Bioscience corporation, Frederick, Md., USA) was used for analysis of gene expression by the T cells. This array contains 367 genes including cytokines, chemokines and their receptors, transcription factors and signaling proteins. […] Analysis of the results was performed using the GEArray analysis program (www.SuperArray.com). […] To verify the results detected by the gene array study, a panel of six genes was designed and tested by real-time PCR: CCR4, ACVR2, JAK1, STAT4, TLR2 and NFKBIE. The cDNA that was used was prepared from the same RNA used for the gene array experiment.

[1] = test system: encephalitogenic BP10 T-cell line; assay: Adoptive EAE by BP10 line stimulated in vitro with test substance; assay type: in vivo, rat
Source text: The ability of a compound to enhance T cell activity may be determined, for example, using an in vivo assay testing the effect of a given compound on the severity of adoptive (passive) EAE, namely, EAE which is induced by the injection of activated encephalitogenic T cell line to the model animal. In order to test a compound, the encephalitogenic T cells are activated in the presence of the compound prior to injection. An exemplary procedure is described in the Examples section hereinbelow.
Antigen-specific T-cell lines were established from lymph node cells that had been stimulated with myelin basic protein (MBP; 10 μg/ml) for 3 days in stimulation medium as described below. Following stimulation, the T-cell blasts were isolated on Lympho-prep (Nycomed Pharma, Oslo, Norway) and seeded in propagation medium. Propagation medium was identical to stimulation medium without autologous serum, but supplemented with fetal calf serum 10% and T-cell growth factors from the supernatant of Con A stimulated spleen cells 10% (Mor et al. (1990) J Clin Invest, 85, 1594-1598). Animals were injected intra-peritoneally with 10^7 MBP-stimulated T cells, following 6-8 cycles of in vitro stimulations. It is known that MBP-reactive lines undergo a reduction in pathogenicity after 6 or more in vitro stimulations. In some experiments the BP10 line was stimulated with phorbol myristate acetate (PMA; 50 ng/ml) and ionomycin (500 ng/ml) for 3 days in stimulation medium, without antigen-presenting cells.
Active EAE was induced by subcutaneous injection of 25 μg guinea-pig MBP (GpMBP) in complete Freund's adjuvant (CFA). CFA was prepared by adding 4 mg/ml Mycobacterium tuberculosis H37Ra (Difco, Mich.) to incomplete Freund's adjuvant (IFA). Adoptive EAE was transferred by intra-peritoneal injection of guinea-pig MBP-activated cells of the BP10 line as described in Mor et al. (1993) J Clin Invest, 92, 2199-2206. […] Clinical scoring was: +1, paralysis of tail; +1.5, paresis of posterior paws and ataxia; +2, paraplegia; +3, paralysis extending to thoracic spine; +4, a moribund state.
Treatment with cefuroxime in vivo could affect many different host agents involved in EAE or AA as well as influencing the rats' bacterial flora. To test whether the antibiotic might directly modify the behavior of effector T cells, an encephalitogenic T-cell line was stimulated in the presence or absence of cefuroxime in vitro. The weakly encephalitogenic BP10 line was used, and was stimulated for 3 days with MBP in the presence or absence of cefuroxime (50 μg/ml). The activated T cells were then washed to remove the antibiotic, the T cells were injected intra-peritoneally into naïve recipient rats (10^7 per rat), and EAE was scored. The BP10 line at later stimulations was used, when its pathogenic potential is reduced, allowing to detect both suppression and enhancement of disease. […] To rule out antigen presenting cells (APC) as the target of the beta-lactam antibiotic, the encephalitogenic BP10 line was stimulated without APC using PMA (50 ng/ml) and Ionomycin (500 ng/ml) in the presence or absence of cefuroxime.

## CO/N=C(\C(=O)N[C@@H]1C(=O)N2C(C(=O)O)=C(COC(N)=O)CS[C@H]12)c1ccco1 [cefuroxime]
CD4+ human T cells; array of 367 genes, 50 μg/ml
  number of genes down-regulated: Fifty-seven
CD4+ human T cells; gene ACTB
  % decrease by Cef.: 49 ± 11%
CD4+ human T cells; gene ACVR1
  % decrease by Cef.: 42 ± 0.7%
CD4+ human T cells; gene ACVR2
  % decrease by Cef.: 60 ± 14.8%
CD4+ human T cells; gene CCL5
  % decrease by Cef.: 21 ± 5.6%
CD4+ human T cells; gene CCL11
  % decrease by Cef.: 18 ± 6.6%
CD4+ human T cells; gene CCR4
  % decrease by Cef.: 39 ± 2%
CD4+ human T cells; gene CCR6
  % decrease by Cef.: 53 ± 5.6%
CD4+ human T cells; gene CCR7
  % decrease by Cef.: 38 ± 8.1%
CD4+ human T cells; gene CD28
  % decrease by Cef.: 51 ± 2.1%
CD4+ human T cells; gene CD40LG
  % decrease by Cef.: 33 ± 7.1%
CD4+ human T cells; gene CREB1
  % decrease by Cef.: 19 ± 4.9%
CD4+ human T cells; gene CREBBP
  % decrease by Cef.: 40 ± 9.9%
CD4+ human T cells; gene CXCL10
  % decrease by Cef.: 39 ± 3%
CD4+ human T cells; gene EGR3
  % decrease by Cef.: 38 ± 2.8%
CD4+ human T cells; gene GFI1
  % decrease by Cef.: 45 ± 14%
CD4+ human T cells; gene HRAS
  % decrease by Cef.: 30 ± 9.8%
CD4+ human T cells; gene IL1B
  % decrease by Cef.: 54 ± 7.0%
CD4+ human T cells; gene IL2RB
  % decrease by Cef.: 50 ± 9.9%
CD4+ human T cells; gene IL2RG
  % decrease by Cef.: 57 ± 9.8%
CD4+ human T cells; gene IL9R
  % decrease by Cef.: 27.5 ± 3%
CD4+ human T cells; gene IL16
  % decrease by Cef.: 50 ± 7.8%
CD4+ human T cells; gene IRAK1
  % decrease by Cef.: 44 ± 2.1%
CD4+ human T cells; gene JAK1
  % decrease by Cef.: 53 ± 13.4%
CD4+ human T cells; gene JUN
  % decrease by Cef.: 49 ± 2.2%
CD4+ human T cells; gene LTA
  % decrease by Cef.: 17 ± 10%
CD4+ human T cells; gene MAP2K4
  % decrease by Cef.: 52 ± 14.1%
CD4+ human T cells; gene MAP3K1
  % decrease by Cef.: 53 ± 12%
CD4+ human T cells; gene MAP3K2
  % decrease by Cef.: 36 ± 12%
CD4+ human T cells; gene MAP3K7
  % decrease by Cef.: 46 ± 9.9%
CD4+ human T cells; gene MAPK9
  % decrease by Cef.: 42 ± 10.9%
CD4+ human T cells; gene NFKB1
  % decrease by Cef.: 43 ± 3.5%
CD4+ human T cells; gene NFKB2
  % decrease by Cef.: 53 ± 10.6%
CD4+ human T cells; gene NFKBIE
  % decrease by Cef.: 63 ± 11%
CD4+ human T cells; gene NFKBIL1
  % decrease by Cef.: 54 ± 12.5%
CD4+ human T cells; gene PAK1
  % decrease by Cef.: 40 ± 2.4%
CD4+ human T cells; gene PIN1
  % decrease by Cef.: 45 ± 12.1%
CD4+ human T cells; gene RANBP5
  % decrease by Cef.: 33 ± 3.5%
CD4+ human T cells; gene REL
  % decrease by Cef.: 45 ± 1.9%
CD4+ human T cells; gene RFX5
  % decrease by Cef.: 36 ± 4.2%
CD4+ human T cells; gene RFXAP
  % decrease by Cef.: 27 ± 12%
CD4+ human T cells; gene SDF2
  % decrease by Cef.: 28 ± 12%
CD4+ human T cells; gene SELL
  % decrease by Cef.: 46 ± 7.0%
CD4+ human T cells; gene SMAD4
  % decrease by Cef.: 47 ± 7.0%
CD4+ human T cells; gene SMAD7
  % decrease by Cef.: 47 ± 4.2%
CD4+ human T cells; gene SP3
  % decrease by Cef.: 39 ± 9.9%
CD4+ human T cells; gene SRF
  % decrease by Cef.: 38 ± 1.9%
CD4+ human T cells; gene STAT1
  % decrease by Cef.: 32 ± 11%
CD4+ human T cells; gene STAT4
  % decrease by Cef.: 47 ± 9.3%
CD4+ human T cells; gene STAT6
  % decrease by Cef.: 47 ± 7.9%
CD4+ human T cells; gene TGFBR3
  % decrease by Cef.: 44 ± 3.5%
CD4+ human T cells; gene TGIF
  % decrease by Cef.: 43 ± 3.5%
CD4+ human T cells; gene TLR2
  % decrease by Cef.: 52 ± 14%
CD4+ human T cells; gene TNFRSF11A
  % decrease by Cef.: 43 ± 2%
CD4+ human T cells; gene TNFα
  % decrease by Cef.: 29 ± 8.5%
CD4+ human T cells; gene TRAF5
  % decrease by Cef.: 43 ± 2.2%
CD4+ human T cells; gene TRAF6
  % decrease by Cef.: 43 ± 3.5%
CD4+ human T cells; gene YY1
  % decrease by Cef.: 23 ± 9.1%
[1]; BP10 line stimulated 3 days with MBP in presence of 50 μg/ml, 10^7 cells IP per rat
  severity of adoptive EAE: markedly enhanced the manifestations of EAE; also recorded: enhanced EAE severity; also recorded: enhances the pathogenicity of the BP10 line
[1]; BP10 line stimulated without APC using PMA (50 ng/ml) and Ionomycin (500 ng/ml)
  severity of adoptive EAE: significantly more severe
[1]; dose-response, BP10 line stimulated in presence of 5 μg/ml
  severity of adoptive EAE: ineffective
[1]; dose-response, BP10 line stimulated in presence of 25 μg/ml
  severity of adoptive EAE: enhancing effect similar to that of 50 μg/ml
